Values of other authors as cited in PubChem BioAssay AID1259409 (Chemical Carcinogenesis Research Information System (CCRIS), 2018).

Tested on: rodent chemically induced tumor inhibition, incidence and multiplicity
Experiment: CCRIS tumor inhibitor studies
Details: for outcome: Carcinogen: X-RAY, Route [Inhibitor]: INTRAPERITONEAL, Strain/Sex: C57BL/MALE AND FEMALE, Target Tissue: Type of Lesion: THYMUS GLAND: LYMPHOMA, Dose [Carcinogen]: 175 RADS 1/WK FOR 4 WK (250 KV X-RAYS, PHILLIPS RT 200/250)

CC1=C(/C=C/C(C)=C/C=C/C(C)=C/C(=O)NCCCO)C(C)(C)CCC1
tumour outcome (control, treated, inhibition, significance) (Carcinogen: N-BUTYL-N-(4-HYDROXYBUTYL)NITROSAMINE, 3817-11-6, Dose [Inhibitor]: 1.5 MMOL/KG/D IN DIET FOR 108 D STARTING 1 WK POST CARCINOGEN TREATMENT (STUDY DURATION: 171 D), Route [Inhibitor]: ORAL, Species: MOUSE, Strain/Sex: BDF/MALE, Target Tissue: Type of Lesion: URINARY BLADDER: TRANSITIONAL CELL CARCINOMA, Dose [Carcinogen]: 5 MG 2/WK FOR 9 WK, Promoter: NONE USED): 31/55 (56%), 28/54 (51%), 9%, not significant | tumour outcome (control, treated, inhibition, significance) (Carcinogen: N-NITROSOBIS(2-OXOPROPYL)AMINE, 60599-38-4, Dose [Inhibitor]: 0.25 MMOL/KG OF DIET FOR 357 D STARTING 2 WK AFTER LAST CARCINOGEN DOSE AND INTERRUPTED BY A 1 WK REST PERIOD OF VEHICLE, Route [Inhibitor]: ORAL, Species: HAMSTER, Strain/Sex: SYRIAN/FEMALE, Target Tissue: Type of Lesion: LIVER: HEPATOCELLULAR CARCINOMA, Dose [Carcinogen]: 20 MG/KG INJECTION GIVEN TWICE 1 WK APART, Promoter: NONE USED): 5%, 42%, -740%, not calculated | tumour outcome (control, treated, inhibition, significance) (Carcinogen: N-NITROSOBIS(2-OXOPROPYL)AMINE, 60599-38-4, Dose [Inhibitor]: 0.25 MMOL/KG OF DIET FOR 357 D STARTING 2 WK AFTER LAST CARCINOGEN DOSE AND INTERRUPTED BY A 1 WK REST PERIOD OF VEHICLE, Route [Inhibitor]: ORAL, Species: HAMSTER, Strain/Sex: SYRIAN/FEMALE, Target Tissue: Type of Lesion: PANCREAS: CARCINOMA, Dose [Carcinogen]: 20 MG/KG INJECTION GIVEN TWICE 1 WK APART, Promoter: NONE USED): 38%, 32%, 16%, not calculated | tumour outcome (control, treated, inhibition, significance) (Carcinogen: N-NITROSOBIS(2-OXOPROPYL)AMINE, 60599-38-4, Dose [Inhibitor]: 0.25 MMOL/KG OF DIET FOR 357 D STARTING 2 WK AFTER LAST CARCINOGEN DOSE AND INTERRUPTED BY A 1 WK REST PERIOD OF VEHICLE, Route [Inhibitor]: ORAL, Species: HAMSTER, Strain/Sex: SYRIAN/MALE, Target Tissue: Type of Lesion: LIVER: HEPATOCELLULAR CARCINOMA, Dose [Carcinogen]: 20 MG/KG INJECTION GIVEN TWICE 1 WK APART, Promoter: NONE USED): 7%, 0%, 100%, not calculated | tumour outcome (control, treated, inhibition, significance) (Carcinogen: N-NITROSOBIS(2-OXOPROPYL)AMINE, 60599-38-4, Dose [Inhibitor]: 0.25 MMOL/KG OF DIET FOR 357 D STARTING 2 WK AFTER LAST CARCINOGEN DOSE AND INTERRUPTED BY A 1 WK REST PERIOD OF VEHICLE, Route [Inhibitor]: ORAL, Species: HAMSTER, Strain/Sex: SYRIAN/MALE, Target Tissue: Type of Lesion: PANCREAS: CARCINOMA, Dose [Carcinogen]: 20 MG/KG INJECTION GIVEN TWICE 1 WK APART, Promoter: NONE USED): 34%, 27%, 21%, not calculated | tumour outcome (control, treated, inhibition, significance) (Carcinogen: N-NITROSOBIS(2-OXOPROPYL)AMINE, 60599-38-4, Dose [Inhibitor]: 0.5 MMOL/KG OF DIET FOR 357 D STARTING 2 WK AFTER LAST CARCINOGEN DOSE AND INTERRUPTED BY A 1 WK REST PERIOD OF VEHICLE-, Route [Inhibitor]: ORAL, Species: HAMSTER, Strain/Sex: SYRIAN/FEMALE, Target Tissue: Type of Lesion: LIVER: HEPATOCELLULAR CARCINOMA, Dose [Carcinogen]: 20 MG/KG INJECTION GIVEN TWICE 1 WK APART, Promoter: NONE USED): 5%, 9%, -80%, not calculated | tumour outcome (control, treated, inhibition, significance) (Carcinogen: N-NITROSOBIS(2-OXOPROPYL)AMINE, 60599-38-4, Dose [Inhibitor]: 0.5 MMOL/KG OF DIET FOR 357 D STARTING 2 WK AFTER LAST CARCINOGEN DOSE AND INTERRUPTED BY A 1 WK REST PERIOD OF VEHICLE-, Route [Inhibitor]: ORAL, Species: HAMSTER, Strain/Sex: SYRIAN/FEMALE, Target Tissue: Type of Lesion: PANCREAS: CARCINOMA, Dose [Carcinogen]: 20 MG/KG INJECTION GIVEN TWICE 1 WK APART, Promoter: NONE USED): 38%, 27%, 29%, not calculated | tumour outcome (control, treated, inhibition, significance) (Carcinogen: N-NITROSOBIS(2-OXOPROPYL)AMINE, 60599-38-4, Dose [Inhibitor]: 0.5 MMOL/KG OF DIET FOR 357 D STARTING 2 WK AFTER LAST CARCINOGEN DOSE AND INTERRUPTED BY A 1 WK REST PERIOD OF VEHICLE-, Route [Inhibitor]: ORAL, Species: HAMSTER, Strain/Sex: SYRIAN/MALE, Target Tissue: Type of Lesion: LIVER: HEPATOCELLULAR CARCINOMA, Dose [Carcinogen]: 20 MG/KG INJECTION GIVEN TWICE 1 WK APART, Promoter: NONE USED): 7%, 12%, -71%, not calculated | tumour outcome (control, treated, inhibition, significance) (Carcinogen: N-NITROSOBIS(2-OXOPROPYL)AMINE, 60599-38-4, Dose [Inhibitor]: 0.5 MMOL/KG OF DIET FOR 357 D STARTING 2 WK AFTER LAST CARCINOGEN DOSE AND INTERRUPTED BY A 1 WK REST PERIOD OF VEHICLE-, Route [Inhibitor]: ORAL, Species: HAMSTER, Strain/Sex: SYRIAN/MALE, Target Tissue: Type of Lesion: PANCREAS: CARCINOMA, Dose [Carcinogen]: 20 MG/KG INJECTION GIVEN TWICE 1 WK APART, Promoter: NONE USED): 34%, 40%, -18%, not calculated

C=C(NC(=O)Cc1ccccc1OC)C(=O)O
outcome (Dose [Inhibitor]: 0, 100 MG/KG 15 MIN PRIOR TO EACH IRRADIATION (STUDY DURATION: 14 MO), Species: MOUSE, Promoter: NONE USED): 45%, 45%, 0%, not significant at 5 mo; 93%, >90%, <3%, not calculated | outcome (Dose [Inhibitor]: 0, 200 MG/KG 15 MIN PRIOR TO SECOND AND FOURTH IRRADIATION (STUDY DURATION 14 MO), Species: MOUSE, Promoter: NONE USED): 45%, 0%, 100%, not calculated at 5 mo; 93%, 40%, 57%, not calculated at 8 mo | outcome (Dose [Inhibitor]: 0, 400 MG/KG ONCE 15 MIN PRIOR TO FIRST IRRADIATION (STUDY DURATION: 14 MO), Species: MOUSE, Promoter: NONE USED): 45%, 10%, 78%, not calculated at 5 mo; 93%, >90%, <3%, not calculated at 8 mo

Cc1cnc(NC(=O)C2=C(O)c3ccccc3S(=O)(=O)N2C)s1
tumour outcome (control, treated, inhibition, significance) (Carcinogen: N-NITROSOBIS(2-OXOPROPYL)AMINE [60599-38-4], Dose [Inhibitor]: 5 MG/KG EACH WEEKDAY OVER A PERIOD OF 16 WKS STARTING AT 4 WKS (STUDY DURATION: 20 WKS), Route [Inhibitor]: ORAL (GAVAGE?), Species: HAMSTER, Strain/Sex: SYRIAN GOLDEN/FEMALE, Target Tissue: Type of Lesion: GALL BLADDER: CARCINOMA IN SITU, Dose [Carcinogen]: 10 MG/KG BW AT WKS 4, 6, 8, 10, 12, 14, 16, 18 (8 DOSES) (STUDY DURATION: 20 WKS)): 4/11 (36%), 0/11 (0%), 100%, not significant

CC/C=C\C/C=C\C/C=C\C/C=C\C/C=C\C/C=C\CCC(=O)O
tumour outcome (control, treated, inhibition, significance) (Carcinogen: 7,12-DIMETHYLBENZ[A]ANTHRACENE, 57-97-6, Dose [Inhibitor]: 0, 0.5 ML 2/WK FOR 19 WK BEGINNING 1 WK POST CARCINOGEN DOSE ADMINISTERED TO RATS FED HIGH-FAT (20% CORN OIL) DIETS (STU, Route [Inhibitor]: GAVAGE, Species: RAT, Strain/Sex: SPRAGUE-DAWLEY/FEMALE, Target Tissue: Type of Lesion: MAMMARY GLAND: ADENOCARCINOMA, Dose [Carcinogen]: 5 MG ONCE AT 50 D OF AGE, Promoter: NONE USED): 24/30 (80%), 6/24 (25%), 69%, p<0.05

CCOC(=O)c1ccc(/C=C(\C)c2ccc3c(c2)C(C)(C)CCC3(C)C)cc1
tumour outcome (control, treated, inhibition, significance) (Carcinogen: 7,12-DIMETHYLBENZ[A]ANTHRACENE, 57-97-6, Dose [Inhibitor]: 0, 24 UG/KG IN ARACHIS OIL (5 ML/KG) REDUCED TO 16 UG/KG AFTER 4 WK 5/WK BEGINNING 1 D POST CARCINOGEN DOSE (STUDY DURAT, Route [Inhibitor]: GAVAGE, Species: RAT, Strain/Sex: SPRAGUE-DAWLEY/FEMALE, Target Tissue: Type of Lesion: MAMMARY GLAND: TUMOR, Dose [Carcinogen]: 15 MG IN ARACHIS OIL ONCE AT 50 D OF AGE, Promoter: NONE USED): 96%, 72%, 25%, not calculated
